Laboratory results: patent US12492210B2, “Tricyclic compounds and their use” (HUTCHISON MEDIPHARMA LIMITED, priority 2019, dated 2025)

Tests used:
MAPK1(ERK2) enzyme = target: T1, MAPK1(ERK2) enzyme (Homo sapiens, UniProt P28482); assay: Z-Lyte Kinase Assay of ERK2; assay type: biochemical; conditions: read-out: Example 18 IC50
T1 construct: purchased Invitrogen PV3313
In short: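 FRET-based Z-LYTE assay using ERK2 kinase with Ser/Thr3 peptide; compound tested at 0.00046–1 μM final in 2% DMSO. Kinase reaction ran 1 h at 25-30° C, followed by 1 h development. The coumarin/fluorescein emission ratio (445/520 nm) gave % phosphorylation, and IC50 was fitted from inhibition relative to uninhibited control.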

[1] = tested on: p-RSK (Thr359) in colo205 cells; assay: p-RSK (Thr359) Acumen Assay in Colo205; assay type: cell-based; conditions: Homo sapiens, COLO 205, 1 hour compound incubation, read-out: Example 19 IC50
In short: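 Colo205 cells (4000/well, seeded overnight in 10% FBS) were exposed 1 hour at 37° C to compound added from a 3–0.001 μM dilution series in 5% DMSO. Cells were then fixed, permeabilised and immunostained for p-RSK Thr359, with PI counterstain. Acumen cytometry gave the percentage of positive cells, normalised to untreated wells and 3 uM GDC0994 wells, for the IC50 fit.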

T1 sequence (P28482 whole entry): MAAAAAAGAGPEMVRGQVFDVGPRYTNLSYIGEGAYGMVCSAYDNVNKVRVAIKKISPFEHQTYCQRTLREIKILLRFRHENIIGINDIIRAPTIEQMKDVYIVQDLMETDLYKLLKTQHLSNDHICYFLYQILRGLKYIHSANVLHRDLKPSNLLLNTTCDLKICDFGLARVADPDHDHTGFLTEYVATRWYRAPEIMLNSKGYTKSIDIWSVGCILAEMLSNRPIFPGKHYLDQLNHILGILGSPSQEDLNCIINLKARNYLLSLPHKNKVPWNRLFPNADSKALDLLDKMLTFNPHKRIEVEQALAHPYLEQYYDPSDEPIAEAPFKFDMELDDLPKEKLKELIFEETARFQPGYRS

| SMILES | IC50 (MAPK1(ERK2) enzyme) [nM] | IC50 [1] [nM] |
| --- | --- | --- |
| Cn1nccc1Nc1cc(-c2cc3n(c2)CCCn2c(COC4(C(F)(F)F)CCC4)nnc2-3)c(Cl)cn1 [Compound 34] | > 10 | > 100 |
| Cn1nccc1Nc1cc(-c2cc3n(c2)CCCn2c(Cc4c(F)cccc4Cl)nnc2-3)c(Cl)cn1 [Compound 33] | > 10 | ≤ 100 |
| Cc1cnc(Nc2ccnn2C)nc1-c1cc2n(c1)C[C@H](C(F)F)n1c-2nnc1C(F)(F)c1ccccc1Cl [Compound 205] | > 10 | ≤ 100 |
| Cn1nccc1Nc1cc(-c2cc3n(c2)CC(C)(C)n2c-3nnc2C(F)(F)C(F)F)c(Cl)cn1 [Compound 249] | 5 to 10 | ≤ 100 |
| Cc1cnc(Nc2ccnn2C)cc1-c1cc2n(c1)C[C@H](CF)n1c-2nnc1C(F)(F)c1noc2ccccc12 [Compound 197] | 5 to 10 | > 100 |
| Cc1cnc(Nc2ccnn2C(F)F)nc1-c1cc2n(c1)C[C@H](C)n1c-2nnc1C(F)(F)c1ccccc1F [Compound 187] | > 10 | ≤ 100 |
| Cc1nonc1C(F)(F)c1nnc2n1[C@@H](C)Cn1cc(-c3cc(Nc4ccnn4C)ncc3Cl)cc1-2 [Compound 103] | 5 to 10 | ≤ 100 |
| COC[C@H]1Cn2cc(-c3nc(Nc4ccnn4C)ncc3C)cc2-c2nnc(C(F)(F)c3ccccc3Cl)n21 [Compound 202] | 5 to 10 | ≤ 100 |
| Cc1cnc(Nc2ccnn2C2COC2)nc1-c1cc2n(c1)C[C@H](C)n1c-2nnc1C(F)(F)c1ccccc1F [Compound 295] | 5 to 10 | ≤ 100 |
| Cc1cnc(Nc2ccnn2C)cc1-c1cc2n(c1)C[C@H](CF)n1c-2nnc1C(F)(F)c1cccc(F)c1F [Compound 180] | > 10 | ≤ 100 |
| COC[C@H]1Cn2cc(-c3cc(Nc4ccnn4C)ncc3C)cc2-c2nnc(C(F)(F)c3ccccc3Cl)n21 [Compound 201] | > 10 | ≤ 100 |
| Cn1nccc1Nc1cc(-c2cc3n(c2)C[C@H](F)Cn2c-3nnc2C(F)(F)C(F)(F)F)c(Cl)cn1 [Compound 115] | 5 to 10 | > 100 |
| CC(C)Nc1cc(-c2cc3n(c2)CCCn2c-3nnc2C2(C(F)(F)F)CCC2)c(Cl)cn1 [Compound 230] | 5 to 10 | > 100 |
| Cn1nccc1Nc1nccc(-c2cn3c(c2Cl)-c2nnc(COc4ccccc4F)n2CCC3)n1 [Compound 257] | 5 to 10 | ≤ 100 |
| Cn1nccc1Nc1cc(-c2cc3n(c2)CCCn2c-3nnc2C(O)c2ccccc2)c(Cl)cn1 (stereo not drawn) [Compound 18] | 5 to 10 | > 100 |
| Cc1cnc(Nc2ccnn2C)nc1-c1cc2n(c1)C[C@H](CF)n1c-2nnc1C(F)(F)c1ccccc1Cl [Compound 176] | 5 to 10 | ≤ 100 |
| COc1cc(Nc2cc(-c3cc4n(c3)CCCn3c-4nnc3C3(C(F)(F)F)CCC3)c(Cl)cn2)n(C)n1 [Compound 269] | 5 to 10 | > 100 |
| Cn1nccc1Nc1cc(-c2cc3n(c2)C[C@H](CF)n2c-3nnc2C(F)(F)c2ccccc2Cl)c(F)cn1 [Compound 192] | > 10 | ≤ 100 |
| Cn1nccc1Nc1cc(-c2cc3n(c2)C[C@H](C(F)F)n2c-3nnc2C(F)(F)c2ccccc2F)c(Cl)cn1 [Compound 208] | > 10 | ≤ 100 |
| Cn1nccc1Nc1cc(-c2cc3n(c2)C[C@H](F)Cn2c-3nnc2C(F)(F)n2cc(F)cn2)c(Cl)cn1 [Compound 162] | 5 to 10 | ≤ 100 |
| Cn1nccc1Nc1cc(-c2cc3n(c2)CC(F)(F)Cn2c-3nnc2C2(C(F)(F)F)CCC2)c(Cl)cn1 [Compound 171] | > 10 | ≤ 100 |
| COc1cnc(Nc2ccnn2C)cc1-c1cc2n(c1)CC(F)(F)Cn1c-2nnc1C1(C(F)(F)F)CCC1 [Compound 214] | 5 to 10 | > 100 |
| Cn1nccc1Nc1cc(-c2cc3n(c2)CCCn2c-3nnc2N2CCc3ccccc32)c(Cl)cn1 [Compound 53, 5-Chloro-4-(3-(indolin-1-yl)-6,7-dihydro-5H-pyrrolo[1,2-a][1,2,4]triazolo[3,4-c][1,4]diazepin-10-yl)-N-(1-methyl-1H-pyrazol-5-yl)pyridin-2-amine] | 5 to 10 | > 100 |

Results, then the compound that gave them:

| IC50 (MAPK1(ERK2) enzyme) [nM] | IC50 [1] [nM] | SMILES |
| --- | --- | --- |
| ≤ 5 | > 100 | Cc1cnc(Nc2ccnn2C)nc1-c1cc2n(c1)CC(F)(F)Cn1c-2nnc1C1(C(F)(F)F)CCC1 [Compound 264] |
| ≤ 5 | ≤ 100 | Cn1nccc1Nc1cc(-c2cc3n(c2)CCCn2c-3nnc2C2(C(C)(F)F)CCC2)c(Cl)cn1 [Compound 49] |
| ≤ 5 | ≤ 100 | Cn1nccc1Nc1cc(-c2cc3n(c2)CC(F)(F)Cn2c-3nnc2C2(C(F)F)CCC2)c(Cl)cn1 [Compound 266] |
| ≤ 5 | ≤ 100 | Cn1nccc1Nc1cc(-c2cc3n(c2)CC2(CC2)Cn2c-3nnc2C2(C(F)F)CCC2)c(Cl)cn1 [Compound 51] |
| ≤ 5 | ≤ 100 | Cn1nccc1Nc1nccc(-c2cc3n(c2)CCn2c(COc4ccccc4F)nnc2-3)n1 [Compound 3] |
| 5 to 10 | > 100 | Cc1cnc(Nc2ccnn2C)cc1-c1cc2n(c1)C[C@H](CF)n1c-2nnc1C(F)(F)c1cc(F)cc(F)c1 [Compound 182] |
| 5 to 10 | ≤ 100 | Cc1cnc(Nc2ccnn2C)nc1-c1cc2n(c1)C[C@H](C(F)F)n1c-2nnc1C(F)(F)c1ccccc1F [Compound 186] |
| ≤ 5 | ≤ 100 | Cn1nccc1Nc1cc(-c2cc3n(c2)C[C@H](CF)n2c-3nnc2C(F)(F)n2cc(F)cn2)c(Cl)cn1 [Compound 163] |
| ≤ 5 | ≤ 100 | Cc1cnc(Nc2ccnn2C)cc1-c1cc2n(c1)[C@@H]1CC[C@@H](C1)n1c-2nnc1C(F)(F)C(F)F [Compound 65] |
| ≤ 5 | > 100 | Cn1nccc1Nc1nccc(-c2cc3n(c2)CCCn2c(Cc4ccccc4Cl)nnc2-3)n1 [Compound 8] |
| ≤ 5 | ≤ 100 | Cn1nccc1Nc1cc(-c2cc3n(c2)CCn2c-3nnc2C(F)(F)C(F)F)c(Cl)cn1 [Compound 58] |
| ≤ 5 | ≤ 100 | Cn1nccc1Nc1nccc(-c2cc3n(c2)CCCn2c(COc4ccccc4F)nnc2-3)n1 [Compound 37] |
| ≤ 5 | ≤ 100 | Cn1nccc1Nc1cc(-c2cc3n(c2)CC2(CCC2)n2c(CCC(F)(F)F)nnc2-3)c(Cl)cn1 [Compound 253] |
| ≤ 5 | ≤ 100 | Cn1nccc1Nc1cc(-c2cc3n(c2)C[C@H](CF)n2c-3nnc2C(F)(F)c2ncccc2Cl)c(Cl)cn1 [Compound 207] |
| ≤ 5 | ≤ 100 | Cc1cnc(Nc2ccnn2C)nc1-c1cc2n(c1)CC1(CC1)n1c-2nnc1C1(C(F)(F)F)CCC1 [Compound 250] |
| ≤ 5 | ≤ 100 | Cn1nccc1Nc1cc(-c2cc3n(c2)C[C@H](CF)n2c-3nnc2C(F)(F)n2cc(Cl)cn2)c(F)cn1 [Compound 164] |

| IC50 (MAPK1(ERK2) enzyme) [nM] | IC50 [1] [nM] | SMILES |
| --- | --- | --- |
| ≤ 5 | ≤ 100 | Cn1nccc1Nc1cc(-c2cc3n(c2)C[C@@H](F)Cn2c-3nnc2C2(C(F)(F)F)CCC2)c(Cl)cn1 [Compound 122] |
| ≤ 5 | > 100 | Cc1cnc(Nc2ccnn2C)nc1-c1cc2n(c1)C[C@H](C)n1c-2nnc1C1(C(F)(F)F)CCC1 [Compound 238] |
| ≤ 5 | ≤ 100 | C[C@@H](CO)Nc1cc(-c2cc3n(c2)CCCn2c-3nnc2C2(C(F)(F)F)CCC2)c(Cl)cn1 [Compound 229, (S)-2-((5-chloro-4-(3-(1-(trifluoromethyl)cyclobutyl)-6,7-dihydro-5H-pyrrolo[1,2-a][1,2,4]triazolo[3,4-c][1,4]diazepin-10-yl)pyridin-2-yl)amino)propan-1-ol] |
| ≤ 5 | ≤ 100 | Cc1cnc(Nc2ccnn2C)nc1-c1cc2c3nnc(C4(C(F)(F)F)CCC4)n3ccn2c1 [Compound 231] |
| ≤ 5 | ≤ 100 | Cc1cnc(Nc2ccnn2C)cc1-c1cc2n(c1)C[C@H](CF)n1c-2nnc1C(F)(F)n1nccc1Cl [Compound 151] |
| ≤ 5 | > 100 | Cc1cc(C(F)(F)c2nnc3n2[C@@H](CF)Cn2cc(-c4cc(Nc5ccnn5C)ncc4C)cc2-3)on1 [Compound 99] |
| ≤ 5 | ≤ 100 | Cc1cnc(Nc2ccnn2C)nc1-c1cc2n(c1)C[C@H](C)n1c-2nnc1C(F)(F)c1cccc(F)c1 [Compound 89] |
| ≤ 5 | ≤ 100 | Cc1cnc(Nc2ccnn2C)nc1-c1cn2c(n1)-c1nnc(C(F)(F)c3ccccc3Cl)n1[C@@H](C)C2 [Compound 222] |
| ≤ 5 | ≤ 100 | Cn1nccc1Nc1cc(-c2cc3n(c2)CCn2c-3nnc2C2(C(F)F)CCC2)c(Cl)cn1 [Compound 46] |
| ≤ 5 | ≤ 100 | Cn1nccc1Nc1cc(-c2cc3n(c2)CCCn2c(COC(F)(F)F)nnc2-3)c(Cl)cn1 [Compound 11] |
| ≤ 5 | ≤ 100 | Cc1cnc(Nc2ccnn2C(F)F)nc1-c1cn2c(n1)-c1nnc(C(F)(F)c3ccccc3Cl)n1[C@@H](C)C2 [Compound 228] |
| ≤ 5 | > 100 | Cc1cnc(Nc2ccnn2C)nc1-c1cc2n(c1)[C@H](C)Cn1c-2nnc1C1(C(F)(F)F)CCC1 [Compound 48] |
| ≤ 5 | ≤ 100 | Cc1cnc(Nc2ccnn2C)cc1-c1cc2n(c1)C[C@H](CF)n1c-2nnc1C(F)(F)c1nonc1C [Compound 101] |
| ≤ 5 | > 100 | C[C@H]1Cn2c(nnc2C2(C(F)(F)F)CCC2)-c2cc(-c3cc(Nc4ccnn4C)ncc3Cl)cn21 [Compound 50] |
| ≤ 5 | ≤ 100 | Cn1nccc1Nc1cc(-c2cc3n(c2)CCCn2c-3nnc2C2(C(F)F)CCCC2)c(Cl)cn1 [Compound 81] |
